Test results taken from patent publication US6706880B2 (Research Triangle Institute, priority 1990, dated 2004).
Counter-ions that a name gives are not always drawn. Like-named read-outs stand apart in the source and are kept apart here.

Experiments:
[1] = biological target: norepinephrine transporter (UniProt Q9WTR4); test: Inhibition of [3H]nisoxetine radioligand binding at the norepinephrine transporter
Source text: (§1) Illustrative in vitro assays for binding are described in Boja et al Ann. NY Acad. Sci. 654:282-291 (1992), which is incorporated herein by reference in its entirety. […] Alternatively, the compounds may be analyzed by their ability to inhibit reuptake of a labelled neurotransmitter in a sample, in particular, in synaptosomes.

serotonin transporter = biological target: T1, serotonin transporter (Rattus norvegicus, UniProt P31652); test: Inhibition of [3H]paroxetine radioligand binding at the serotonin transporter
T1 construct: from tissue
T1 sequence (P31652 whole entry): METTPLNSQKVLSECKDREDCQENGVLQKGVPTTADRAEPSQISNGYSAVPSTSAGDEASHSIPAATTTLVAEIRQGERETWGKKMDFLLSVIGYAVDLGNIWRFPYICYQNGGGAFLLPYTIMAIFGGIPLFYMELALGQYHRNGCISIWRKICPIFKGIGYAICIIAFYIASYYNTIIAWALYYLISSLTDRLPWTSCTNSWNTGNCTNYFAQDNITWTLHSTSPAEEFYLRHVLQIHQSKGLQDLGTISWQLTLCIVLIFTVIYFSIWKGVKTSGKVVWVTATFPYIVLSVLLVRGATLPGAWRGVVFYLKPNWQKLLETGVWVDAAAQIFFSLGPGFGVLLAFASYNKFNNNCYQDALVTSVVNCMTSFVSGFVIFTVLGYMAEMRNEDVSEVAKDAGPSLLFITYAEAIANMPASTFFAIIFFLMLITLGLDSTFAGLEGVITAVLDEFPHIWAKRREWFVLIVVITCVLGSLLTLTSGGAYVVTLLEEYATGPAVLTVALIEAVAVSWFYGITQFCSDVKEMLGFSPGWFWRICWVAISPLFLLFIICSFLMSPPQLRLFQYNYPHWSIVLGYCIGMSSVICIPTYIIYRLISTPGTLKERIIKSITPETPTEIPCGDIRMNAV
Source text: as §1

dopamine transporter [2] = biological target: dopamine transporter (UniProt P23977); type: binding
Source text: as §1

dopamine transporter [3] = type: binding; details: ratio of IC50 values, Table II
Source text: as §1

[4] = read-out: IC50 NE [3H]-nisoxetine, Table II
[5] = read-out: NEN IC50 for inhibition of radioligand binding, NEN=[3H] nisoxetine
[6] = 5-HT IC50 for inhibition of radioligand binding, 5-HT=[3H] paroxetine
[7] = IC50 5-HT [3H]-paroxatine, Table II
[8] = read-out: DA IC50 for inhibition of radioligand binding, DA=[3H]WIN 35,428
[9] = read-out: IC50 DA [3H]-WIN 35,428, Table II

Row | Structure (SMILES) | melting point | IC50 [1, 5] [µM] | IC50 (serotonin transporter; [6]) [µM] | IC50 (serotonin transporter; [7]) [µM] | 5-HT/DA Ratio (dopamine transporter [3]) | IC50 (dopamine transporter [2]; [8]) [µM] | other results
1 | Cc1ccc([C@H]2C[C@@H]3CC[C@H]([C@H]2c2nn[nH]n2)N3C)cc1 (as salt: hydrochloride) [RTI-157, 3β-(4-Methylphenyl)-tropane-2β-tetrazole Hydrochloride] | < 212 °C (dec.) | – | – | – | – | – | –
2 | Cc1cc([C@H]2[C@@H](c3ccc(Cl)cc3)C[C@@H]3CC[C@H]2N3C)on1 (as salt: hydrochloride) [RTI-165, 3β-(4-Chlorophenyl)-2β-(3-methylisoxazol-5-yl)tropane Hydrochloride] | 235 °C (dec.) | – | – | – | – | – | –
3 | CN1[C@H]2CC[C@@H]1[C@@H](c1cc(-c3ccccc3)no1)[C@@H](c1ccc(Cl)cc1)C2 (as salt: hydrochloride) [RTI-4229-177, 3β-(4-Chlorophenyl)-2β-(3-phenylisoxazol-5-yl)tropane Hydrochloride] | 287 °C | – | – | – | – | – | –
4 | CN1C2CCC1C(c1nnc(-c3ccccc3)s1)C(c1ccc(Cl)cc1)C2 (stereo not drawn) (as salt: hydrochloride) [RTI-4229-200, 3β-(4-Chlorophenyl)-2β-(S-phenyl-1,3,4-thiadiazol-2-yl)-tropane Hydrochloride] | 165 to 170 °C | – | – | – | – | – | –
5 | CN1[C@H]2CC[C@@H]1[C@@H](C#N)[C@@H](c1ccc(Cl)cc1)C2 [RTI-161, 3β-(4-Chlorophenyl)-tropane-2β-nitrile] | > 220 °C (dec.) | – | – | – | – | – | IC50 ([1]; read-out: IC50 NE [3H]-nisoxetine, Table IV): 2.52 ± 0.253 µM; IC50 (serotonin transporter; IC50 5-HT [3H]-paroxetine, Table IV): 1.89 ± 0.134 µM; IC50 (dopamine transporter [2]; read-out: IC50 DA [3H]-WIN 35,428, Table IV): 0.0131 ± 0.00078 µM
6 | CN1C2CCC1C(c1nnc(-c3ccccc3)s1)C(c1ccc(Cl)cc1)C2 (stereo not drawn) [RTI-4229-200, 3β-(4-Chlorophenyl)-2β-(S-phenyl-1,3,4-thiadiazol-2-yl)-tropane Hydrochloride] | – | 4.14 | 18.4 | 18.4 | 1203 | 0.0153 | IC50 [1, 4]: 4.14 ± 0.466 µM; NE/DA Ratio (dopamine transporter [3]): 271; IC50 (dopamine transporter [2]; [9]): 0.0153 ± 0.00243 µM
7 | CN1[C@H]2CC[C@@H]1[C@@H](c1nc3ccccc3s1)[C@@H](c1ccc(Cl)cc1)C2 [RTI-4229-202, 3β-(4-Chlorophenyl)-2β-(benzothiazol-2-yl)-tropane Hydrochloride] | – | 0.403 | 1.12 | 1.12 ± 0.12 | 817 | 0.00137 | IC50 [1, 4]: 0.403 ± 0.03 µM; NE/DA Ratio (dopamine transporter [3]): 294; IC50 (dopamine transporter [2]; [9]): 0.00137 ± 0.00014 µM
8 | CN1[C@H]2CC[C@@H]1[C@@H](c1ncc(-c3ccccc3)s1)[C@@H](c1ccc(Cl)cc1)C2 [RTI-4229-219, 3β-(4-Chlorophenyl)-2β-(5-phenylthiazol-2-yl)-tropane Hydrochloride] | – | 8.56 | 10.3 | 10.3 | 1811 | 0.00571 | –
